In PubChem BioAssay (NCI) one finds TGI data, which are given here for twelve compounds.

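Exposure lasted 48 hours, with cells grown in 96-well plates and compounds tested at five concentrations. TGI is the concentration that stops growth completely.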 A value given as a limit tells only on which side of the number the result lay.

Holding throughout (assay): DTP human tumour cell line panel, 48 h
Experiment [1] concerns COLO 205 colon.
In experiment [2] the test system is ACHN renal.
Experiment [3] concerns MDA-MB-231 breast.
For experiment [4], the system named is CAKI-1 renal.
The subject of experiment [5] is OVCAR-4 ovarian.
Experiment [6] deals with MCF7 breast.
Experiment [7] deals with UACC-257 melanoma.
Experiment [8] relates to A549 NSCLC.
For experiment [9], the system named is SK-MEL-28 melanoma.
Experiment [10] has as its system HS 578T breast.
Experiment [11] has as its system DU-145 prostate.

For `O=S1(=O)CCN(Cc2ccccc2)/C1=N\S(=O)(=O)c1ccc(Cl)cc1`, the TGI is 34.3 µM in experiment [1]; 33.1 µM in experiment [2]; more than 100 µM in experiment [3]; 33.2 µM in [4]; 36.2 µM in [5]; 42.4 µM in experiment [6]. Besides, the TGI in experiment [7] was 35.7 µM; in [8] it was more than 100 µM; in [9], 32.8 µM; in experiment [10], 73.8 µM; in experiment [11], 35.3 µM.

For the compound `N=C1C(=N)c2ccccc2-c2ccccc21`, the TGI in experiment [1] is 3.24 µM; in experiment [2], 2.72 µM; in experiment [3], 1.16 µM; in experiment [4], 3.08 µM; in [5], 2.78 µM; in [6] it was 2.27 µM. The TGI is 1.46 µM in [7]; 3.66 µM in [8]; 3.35 µM in [9]; more than 26.1 µM in experiment [10]; 2.82 µM in [11].

In the case of `C/C=C(/C)C(=O)O[C@H]1C(C)=C[C@]23C(=O)[C@@H](C=C(COC(C)=O)[C@@H](O)[C@]12O)[C@H]1[C@@H](C[C@H]3C)[C@@]1(C)OC(=O)/C(C)=C\C`, the TGI in experiment [1] was 3.8 µM; in experiment [2], 4.39 µM; in experiment [3], 8.18 µM; in [4] it was 6.14 µM; in experiment [5] it was 6.33 µM; in [6] it was 6.11 µM. Also, the TGI in [7] turned out to be 10.4 µM; in experiment [8], 9.34 µM; in experiment [9], 11.8 µM; in [10] it was 5.28 µM; in experiment [11] it was 6.21 µM.

In the case of `C[Si](C)(C)OC1c2[nH]c3ccccc3c2CN2C(=O)CCC12` (stereo unspecified), the TGI in experiment [1], in [2], in [3], in experiment [4], in [5] and in experiment [6] was more than 100 µM throughout. Further, the TGI in experiment [7], in [8], in experiment [9], in [10] and in experiment [11] was more than 100 µM each time.

For `CC1(C)OCC(C2OC(N3O[C@H](CI)C[C@@H]3c3ccccc3)C3OC(C)(C)OC23)O1` (stereo partly specified), the total growth inhibition concentration (TGI) in experiment [1], in experiment [2], in experiment [3], in experiment [4], in experiment [5] and in experiment [6] was more than 100 µM throughout. Besides, the TGI in experiment [7], in experiment [8], in experiment [9], in experiment [10] and in [11] was more than 100 µM each time.

On to `CC(=O)O[C@H]1C(=O)[C@@]2(C)[C@H]([C@H](OC(=O)C3CCCCC3)[C@]3(O)C[C@H](OC(=O)[C@H](O)[C@@H](NC(=O)C4CCCCC4)C4CCCCC4)C(C)=C1C3(C)C)[C@]1(OC(C)=O)CO[C@@H]1C[C@@H]2O`, for which the TGI in experiment [1] stood at 0.0266 µM; in [2] it was 12.4 µM; in [3], 0.476 µM; in experiment [4] it was 8.02 µM; in [5], 11.8 µM; in [6] it was 4.36 µM. Also, the TGI was determined as 4.24 µM in experiment [7]; 20.9 µM in experiment [8]; 8.55 µM in [9]; 0.0531 µM in experiment [10]; 2.27 µM in experiment [11].

In the case of `N#CS/C(Cl)=C(/C(Cl)=C(Cl)Cl)[N+](=O)[O-]`, the TGI in [1], in experiment [2], in [3], in [4], in experiment [5] and in experiment [6] was more than 100 µM each time. Further, the TGI in [7] was more than 100 µM; in experiment [8] it was more than 100 µM; in experiment [9] it was 86.5 µM; in experiment [10], 61 µM; in experiment [11] it was more than 100 µM.

As to `O=C1N=C(c2ccccc2)O/C1=C\c1ccccc1`, the TGI in experiment [1], in experiment [2], in experiment [3], in experiment [4], in experiment [5] and in experiment [6] was more than 100 µM in each case. For the same compound, the total growth inhibition concentration (TGI) in experiment [7], in experiment [8], in experiment [9], in experiment [10] and in [11] was more than 100 µM in each case.

In the case of `CC(=O)CCC[C@@H](C)[C@@H]1O[C@H]([C@@]2(C)CCC(=O)O2)C[C@H]2C(CSc3ccccc3)C(=O)O[C@@H]12` (stereo partly specified), the TGI is 31.4 µM in experiment [1]; 28.9 µM in experiment [2]; 37.3 µM in experiment [3]; 27.2 µM in experiment [4]; 31.8 µM in experiment [5]; 24.9 µM in [6]. Moreover, the TGI is 28.1 µM in [7]; 44.1 µM in experiment [8]; 41.7 µM in experiment [9]; more than 41.6 µM in experiment [10]; 29.1 µM in [11].

Consider `C=C(C)[C@@H]1CC[C@]2(C(=O)O)CC[C@]3(C)[C@H](CC[C@@H]4[C@@]5(C)CC[C@H](C(=O)/C=C/c6ccc(O)cc6)C(C)(C)[C@@H]5CC[C@]43C)[C@@H]12`, for which the TGI in experiment [1] was determined as 9.53 µM; in experiment [3], 23 µM; in experiment [4], 9.43 µM; in [5], 72.4 µM; in experiment [6] it was 11.5 µM; in experiment [7] it was 16.5 µM. For the same compound, the TGI in experiment [8] was more than 100 µM; in experiment [9] it was 26.5 µM; in experiment [10], 36.2 µM; in [11] it was 18.1 µM.

As to `CC1(C)C(=O)N=C(N)N1C(=O)OCc1ccccc1`, the TGI in experiment [1], in experiment [2], in experiment [3], in [4], in experiment [5] and in experiment [6] was more than 100 µM in each case. In addition, the TGI in [7], in experiment [8], in experiment [9], in [10] and in [11] was more than 100 µM throughout.

With `O=C1CCCc2cc3c(cc21)CCC3C(=O)O` (stereo unspecified), the TGI in experiment [1], in [2], in experiment [3], in experiment [4], in experiment [5] and in experiment [6] was more than 100 µM in each case. Further, the TGI in experiment [7], in [8], in experiment [9], in experiment [10] and in experiment [11] was more than 100 µM in each case.
